Data on six compounds can be found in paper PMC9897788, “Design, synthesis and cytotoxic evaluation of novel bis-thiazole derivatives as preferential Pim1 kinase inhibitors with in vivo and in silico study” (Journal of Enzyme Inhibition and Medicinal Chemistry, 2023).

Experiment in all cases: NCI 60 cell one-dose screening (SRB)
Assay type in all cases: cell-based

For test [1], the system named is 786-0. The following applies: Homo sapiens; 786-0, Renal Cancer; single dose 10 µM, 48 h; read-out: Percentage of cellular growth inhibition. In outline: (§1)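 For suspension lines such as SR, settled cells were fixed with 16% final TCA; adherent lines used 10% TCA. All lines received 10 µM compound for 48 h at 37 °C before SRB staining, and percent growth inhibition relative to control was reported.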

Test [2] has as its system A549/ATCC. The following applies: Homo sapiens, Non-Small Cell Lung Cancer, single dose 10 µM, 48 h, read-out: Percentage of cellular growth inhibition. Summed up: as §1
The test system of test [3] is BT-549. The following applies: Homo sapiens; BT-549, Breast Cancer; single dose 10 µM, 48 h; read-out: Percentage of cellular growth inhibition. Summed up: as §1
Test [4] has as its system CAKI-1. Conditions: Homo sapiens; CAKI-1, Renal Cancer; single dose 10 µM, 48 h; read-out: Percentage of cellular growth inhibition. Summed up:
as §1

Test [5] deals with EKVX. Conditions: Homo sapiens, Non-Small Cell Lung Cancer, single dose 10 µM, 48 h, read-out: Percentage of cellular growth inhibition. In outline: as §1
The subject of test [6] is HCC-2998. The following applies: Homo sapiens; HCC-2998, Colon Cancer; single dose 10 µM, 48 h; read-out: Percentage of cellular growth inhibition. Summed up:
as §1

The subject of test [7] is HOP-62. The following applies: Homo sapiens; HOP-62, Non-Small Cell Lung Cancer; single dose 10 µM, 48 h; read-out: Percentage of cellular growth inhibition. In outline: as §1
Test [8] has as its system IGROV1. Conditions: Homo sapiens, IGROV-1; IGROV1, Ovarian Cancer; single dose 10 µM, 48 h; read-out: Percentage of cellular growth inhibition. Summed up:
as §1

The subject of test [9] is K-562. The following applies: Homo sapiens, K562; K-562, Leukemia; single dose 10 µM, 48 h; read-out: Percentage of cellular growth inhibition. In outline:
as §1

Test [10] relates to M14. The following applies: Homo sapiens; M14, Melanoma; single dose 10 µM, 48 h; read-out: Percentage of cellular growth inhibition. Summed up:
as §1

Test [11] deals with NCI-H226. The following applies: Homo sapiens; NCI-H226, Non-Small Cell Lung Cancer; single dose 10 µM, 48 h; read-out: Percentage of cellular growth inhibition. In outline: as §1
The test system of test [12] is NCI-H322M. Conditions: Homo sapiens, Non-Small Cell Lung Cancer, single dose 10 µM, 48 h, read-out: Percentage of cellular growth inhibition. Summed up: as §1
Test [13] has as its system NCI/ADR-RES. The following applies: Homo sapiens, Ovarian Cancer, single dose 10 µM, 48 h, read-out: Percentage of cellular growth inhibition. In outline: as §1
The subject of test [14] is OVCAR-8. Conditions: Homo sapiens; OVCAR-8, Ovarian Cancer; single dose 10 µM, 48 h; read-out: Percentage of cellular growth inhibition. Summed up: as §1
The subject of test [15] is SF-268. Conditions: Homo sapiens; SF-268, CNS Cancer; single dose 10 µM, 48 h; read-out: Percentage of cellular growth inhibition. In outline:
as §1

In test [16] the test system is SF-539. Conditions: Homo sapiens; SF-539, CNS Cancer; single dose 10 µM, 48 h; read-out: Percentage of cellular growth inhibition. Summed up:
as §1

Test [17] deals with SN12C. Conditions: Homo sapiens, Renal Cancer, single dose 10 µM, 48 h, read-out: Percentage of cellular growth inhibition. In outline:
as §1

In test [18] the test system is SNB-75. The following applies: Homo sapiens; SNB-75, CNS Cancer; single dose 10 µM, 48 h; read-out: Percentage of cellular growth inhibition. In outline: as §1
The subject of test [19] is SW-620. Conditions: Homo sapiens; SW-620, Colon Cancer; single dose 10 µM, 48 h; read-out: Percentage of cellular growth inhibition. Summed up:
as §1

Test [20] deals with U251. Conditions: Homo sapiens, U-251; U251, CNS Cancer; single dose 10 µM, 48 h; read-out: Percentage of cellular growth inhibition. Summed up: as §1
The subject of test [21] is UACC-257. Conditions: Homo sapiens; UACC-257, Melanoma; single dose 10 µM, 48 h; read-out: Percentage of cellular growth inhibition. In outline: as §1

Consider `Fc1ccc(-c2csc(Nc3cccc(Nc4nc(-c5ccc(F)cc5)cs4)c3)n2)cc1` [6b, N^1,N^3-bis(4–(4-fluorophenyl)thiazol-2-yl)benzene-1,3-diamine], for which the inhibition at 10 µM in [1] was 31.2%; in test [2] it was 37.2%; in test [3], 36%; in test [4] it was 53.6%; in [5], 60.2%; in test [6], 64.8%. Also, the inhibition at 10 µM in test [7] amounted to 27.3%; in test [8] it was 58.2%; in test [9], 64%; in [10], 33.2%; in test [11], 48.5%; in test [12], 39.9%. The inhibition at 10 µM is 36.3% in [13]; 32.1% in test [14]; 42.1% in [15]; 29.1% in [16]; 52.8% in test [17]; 4.8% in [18]. For the same compound, the inhibition at 10 µM in test [19] stood at 29.7%; in test [20] it was 37.3%; in [21], 25.4%.

With `Clc1ccc(-c2csc(Nc3cccc(Nc4nc(-c5ccc(Cl)cc5)cs4)c3)n2)cc1` [6c, N^1,N^3-bis(4–(4-chlorophenyl)thiazol-2-yl)benzene-1,3-diamine], the inhibition at 10 µM was 29.2% in [1]; 6.7% in test [2]; -6.1% in [3]; 43% in test [4]; 12.4% in test [5]; -10.9% in test [6]. Also, the inhibition at 10 µM in [7] is 17.7%; in test [8], 9%; in test [9] it was 5.8%; in test [10], 29.3%; in test [11], 27.2%; in test [12], 5%. Also, the inhibition at 10 µM in test [13] came to 4.6%; in test [14], 7.7%; in test [15] it was 22.6%; in test [16], 13.9%; in [17], 1%; in [18], 22.5%. Besides, the values for the inhibition at 10 µM in [19], in test [20] and in [21] were 0.4%, 2.2% and -20.4%, respectively.

For `c1ccc(/N=c2\scc(-c3ccccc3)n2-c2cccc(-n3c(-c4ccccc4)cs/c3=N\c3ccccc3)c2)cc1` [8a, N,N’-(3,3’-(1,3-phenylene)bis(4-phenylthiazole-3(3H)-yl-2(3H)-ylidene))dianiline], the inhibition at 10 µM was -11.1% in test [1]; -4.9% in test [2]; -31.8% in test [3]; 25.4% in test [4]; 5.3% in test [5]; -22.2% in test [6]. Further, the inhibition at 10 µM was -12.6% in [7]; -6.1% in test [8]; 7.8% in [9]; -14.3% in test [10]; 17% in test [11]; 1.8% in test [12]. In addition, the inhibition at 10 µM in test [13] was -5%; in test [14], -1.5%; in test [15], 0.3%; in test [16], -7.1%; in test [17], 3.9%; in test [18] it was 11.7%. In addition, the inhibition at 10 µM in [19] is -0.4%; in [20] it was 2.7%; in test [21], -11.8%.

On to `Fc1ccc(-c2cs/c(=N\c3ccccc3)n2-c2cccc(-n3c(-c4ccc(F)cc4)cs/c3=N\c3ccccc3)c2)cc1` [8b, N,N’-(3,3’-(1,3-phenylene)bis(4–(4-fluorophenyl)thiazole-3(3H)-yl-2(3H)-ylidene))dianiline], for which the inhibition at 10 µM in test [1] was 4.2%; in test [2], 19.8%; in test [3] it was -4.1%; in [4] it was 22.2%; in test [5], 19.5%; in test [6], 12.1%. Further, the inhibition at 10 µM in test [7] is -4.6%; in [8] it was 12.9%; in test [9] it was 28.8%; in test [10], 0.4%; in [11], 23.5%; in test [12], 15.2%. Also, the inhibition at 10 µM was 10.2% in [13]; 12.4% in test [14]; 8.7% in test [15]; -0.9% in test [16]; 7.5% in test [17]; 15.4% in test [18]. Further, the results for the inhibition at 10 µM in test [19], in test [20] and in [21] were 45.1%, 28.1% and -7%, respectively.

`Clc1ccc(-c2cs/c(=N\c3ccccc3)n2-c2cccc(-n3c(-c4ccc(Cl)cc4)cs/c3=N\c3ccccc3)c2)cc1` [8c, N,N’-(3,3’-(1,3-phenylene)bis(4–(4-chlorophenyl)thiazole-3(3H)-yl-2(3H)-ylidene))dianiline]: the inhibition at 10 µM in [1] was -6.9%; in test [2], 27.7%; in test [3], -15.5%; in test [4] it was 9%; in [5] it was 4.9%; in [6], -1.7%. Besides, the inhibition at 10 µM in [7] was -3.3%; in [8], -0.4%; in [9] it was 11.7%; in test [10], -10.7%; in test [11], 16.9%; in [12], -1.2%. Moreover, the inhibition at 10 µM in [13] was 0.5%; in test [14], 7.9%; in [15], 12.1%; in test [16] it was -3%; in test [17], 2.3%; in test [18], 14.6%. In addition, the inhibition at 10 µM in test [19] was 36.7%; in test [20] it was 11.1%; in test [21], -8.4%.

For the compound `NC(=S)Nc1cccc(NC(N)=S)c1` [compound 2, 1,1′-(1,3-phenylene)bis(thiourea)], the inhibition at 10 µM in test [1] was -7.8%; in test [2], 6.1%; in test [3], -14.6%; in [4], 20.3%; in test [5] it was -1.3%; in test [6] it was -16.9%. Besides, the inhibition at 10 µM in [7] was -19.5%; in [8], 2.5%; in test [9], 90.7%; in test [10], -25.1%; in [11] it was 1.9%; in test [12], 11.7%. For the same compound, the inhibition at 10 µM in test [13] was 2.4%; in [14], 6%; in test [15], 9.1%; in test [16], -0.5%; in test [17], 18.1%; in test [18] it was 2.4%. The inhibition at 10 µM in test [19] is -6.9%; in [20] it was 11.2%; in test [21], 1.9%.

By inhibition is commonly meant the relative decrease from the control value, in per cent.
